Laboratory results reported in ChEMBL document CHEMBL1152471 (2008).
Values after ≈ are worked out from the molar mass of the structure shown.

Assays:
Format in all cases: functional
[1] = tested on: Mycobacterium tuberculosis; assay: Antituberculosis activity against linezolid-resistant Mycobacterium tuberculosis having mutation in 23S rRNA with identical G to T base pair exchange at position 2061
[2] = tested on: Mycobacterium tuberculosis; assay: Antituberculosis activity against linezolid-resistant Mycobacterium tuberculosis having mutation in 23S rRNA with alteration in domain V
[3] = tested on: Mycobacterium tuberculosis; assay: Antituberculosis activity against linezolid-resistant Mycobacterium tuberculosis without mutation in 23S rRNA
[4] = tested on: Mycobacterium tuberculosis; assay: Antituberculosis activity against linezolid-resistant Mycobacterium tuberculosis by bactec 460 TB method
[5] = tested on: Mycobacterium tuberculosis; assay: Antituberculosis activity against linezolid-resistant Mycobacterium tuberculosis by bactec MGIT 960 method
[6] = tested on: Mycobacterium tuberculosis; assay: Antituberculosis activity against linezolid-resistant Mycobacterium tuberculosis having mutation in 23S rRNA with G to T base pair exchange at position 2576

In the case of `CC(=O)NC[C@H]1CN(c2ccc(N3CCOCC3)c(F)c2)C(=O)O1` [LINEZOLID], the MIC [1] is reported as 32 µg/mL (≈ 94.9 µM), the MIC [2] is reported as “>=64 ug ml-1” and the MIC [3] is reported as 4 µg/mL (≈ 11.9 µM). The MIC [4] was ≤ 1 µg/mL, the MIC [5] was ≤ 1 µg/mL and the MIC [6] was 16 µg/mL (≈ 47.4 µM).
